The values that follow come from patent US9359409B2, “Antimicrobial peptides, compositions comprising the same and uses thereof” (priority 2012, dated 2016).

Where two headings read alike, the source gives them in different places. Ends that are not written are not given here. Bounds are passed on as bounds.

Format in all cases: cell-based
The subject of experiment [1] is S. warnerii. In a few lines: (§1)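 Agar dilution per CLSI M2 with non-amidated peptides diluted two-fold (1:2, 1:4, 1:8) into agar at 1:10. Inoculum 10^4 CFU/spot from 0.5 McFarland; plates incubated inverted at 35 °C for 16-20 h. MIC = lowest dilution completely inhibiting growth (>80% reduction vs control), ignoring single colonies or inoculum film.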
Experiment [2] concerns E. coli. As to conditions: non-amidated peptides; E. coli ATCC 25922, WT. The method in brief:
as §1

Experiment [3] deals with P. aeruginosa. The method in brief: as §1

Turning to “ILRWPWWPWRRK-NH2 [Omiganan, ILRWPWWPWRRK, reference compound]”, the “MIC in agar dilution” value in experiment [1] is 16 µg/mL; in experiment [2], greater than 128 µg/mL; in experiment [3] it was greater than 128 µg/mL; in experiment [3] (non-amidated peptides, P. aeruginosa M13513, KPC), greater than 128 µg/mL.
